The values that follow come from patent publication US6548494B1, “Tricyclic inhibitors of poly(ADP-ribose) polymerases” (Agouron Pharmaceuticals, Inc., priority 1999, dated 2003).

Values joined by “and” are separate entries in the source; they are usually repeats but may differ in a detail not shown here. Equal values may be shown once. Where a name gives a salt, the structure may show the parent alone.

In this test the target is purified PARP protein (Homo sapiens, UniProt P09874). Description: PARP enzyme inhibition assay. To be noted: 20 nM purified PARP (5 nM for tight-binding inhibitors), 500 μM NAD+, 25° C.; several values in one cell = repeat determinations; read-out: Inhibition Constant Ki. Format: biochemical.
Sequence of purified PARP protein (P09874 whole entry): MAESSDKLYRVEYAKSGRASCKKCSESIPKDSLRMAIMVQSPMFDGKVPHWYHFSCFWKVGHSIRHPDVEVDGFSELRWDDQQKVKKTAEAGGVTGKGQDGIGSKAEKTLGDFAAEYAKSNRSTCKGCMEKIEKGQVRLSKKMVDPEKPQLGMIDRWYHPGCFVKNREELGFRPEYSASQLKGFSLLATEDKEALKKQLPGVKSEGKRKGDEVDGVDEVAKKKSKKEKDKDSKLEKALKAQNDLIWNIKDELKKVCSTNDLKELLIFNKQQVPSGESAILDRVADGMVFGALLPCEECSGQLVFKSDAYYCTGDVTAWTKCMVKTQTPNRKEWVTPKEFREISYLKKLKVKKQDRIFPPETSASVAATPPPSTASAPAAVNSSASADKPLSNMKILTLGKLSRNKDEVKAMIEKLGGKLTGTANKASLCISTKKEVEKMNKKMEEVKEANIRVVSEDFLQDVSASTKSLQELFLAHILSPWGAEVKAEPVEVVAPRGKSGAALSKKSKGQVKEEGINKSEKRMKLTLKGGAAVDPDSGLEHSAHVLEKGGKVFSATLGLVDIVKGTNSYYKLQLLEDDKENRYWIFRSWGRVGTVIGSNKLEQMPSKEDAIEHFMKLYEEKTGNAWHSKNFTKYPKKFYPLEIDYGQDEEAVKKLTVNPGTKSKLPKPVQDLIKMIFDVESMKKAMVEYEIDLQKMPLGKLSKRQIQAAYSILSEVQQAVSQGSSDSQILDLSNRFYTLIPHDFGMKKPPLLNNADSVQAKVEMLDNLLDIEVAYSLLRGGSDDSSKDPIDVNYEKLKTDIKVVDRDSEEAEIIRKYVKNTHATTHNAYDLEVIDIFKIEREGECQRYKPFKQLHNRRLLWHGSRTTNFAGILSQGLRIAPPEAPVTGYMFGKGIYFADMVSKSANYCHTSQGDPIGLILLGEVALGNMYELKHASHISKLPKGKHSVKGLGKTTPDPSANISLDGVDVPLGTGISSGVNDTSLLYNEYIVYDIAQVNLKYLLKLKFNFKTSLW
In general, Ki refers to a measure of affinity in units of concentration, obtained from inhibition or displacement. Take `O=C1NCCn2c(C3CCCCC3)nc3cccc1c32` [Example 24, 1-Cyclohexyl-8,9-dihydro-7H-2,7,9a-triaza-benzo[cd]azulen-6-one]: the Ki was 29 nM.
As for `N/N=C(\N)c1c(-c2ccc(F)cc2)n2c3c(cccc13)C(=O)NCC2` [Example 156, 7-Formyl-6-(4-fluorophenyl)-1-oxo-3,4-dihydro-[1,4]diazepino[6,7,1-hi]indole Amidrazone Hydrochloride], the inhibition constant Ki came to 57 nM.
Then `C[C@H]1Cn2c(-c3ccc(Cn4cccc4)cc3)nc3cccc(c32)C(=O)N1` [Example 234, (S)-8-Methyl-1-(4-pyrrol-1-ylmethyl-phenyl)-8,9-dihydro-7H -2,7,9a-triaza-benzo[cd]azulen-6-one], with 8.7 nM; and `CC(C)(C)OC(=O)NC1CCN(Cc2ccc(-c3nc4cccc5c4n3CCNC5=O)cc2)C1` (stereo not drawn) [Example 219, {1-[4-(6-oxo-6,7,8,9-Tetrahydro-2,7,9a-triaza-benzo[cd]azulen-1-yl)-benzyl]-pyrrolidin-3-yl}-carbamic Acid tert-Butyl Ester], with 11 nM; and `CC1CCC(C)N1Cc1ccc(-c2nc3cccc4c3n2CCNC4=O)cc1` (stereo not drawn) [Example 214, 1-[4-(2,5-Dimethyl-pyrrolidin-1-ylmethyl)-phenyl]-8,9-dihydro-7H-2,7,9a-triaza-benzo[cd]azulen-6-one], with 8.3 nM.
Turning to `CC(C)(C)OC(=O)N1CCCC(c2ccc(-c3nc4cccc5c4n3CCNC5=O)cc2)C1` (stereo not drawn) [Example 143, 3-[4-(6-oxo-6,7,8,9-Tetrahydro-2,7,9a-triaza-benzo[cd]azulen-1-yl)-phenyl]-piperidine-1-carboxylic Acid t-Butyl Ester], the Ki came out at 22 nM.
As for `O=C1N[C@@H](CO)Cn2c(-c3ccc(Cl)cc3)nc3cccc1c32` [Example 237, (R)-1-(4-Chloro-phenyl)-8-hydroxymethyl-8,9-dihydro-7H-2,7,9a-triaza-benzo[cd]azulen-6-one], the figure is 5 nM and 6 nM; as for `O=C1NCCn2c(-c3ccc(CNCCc4ccc(F)cc4)cc3)nc3cccc1c32` [Example 185, 1-(4-{[2-(4-Fluoro-phenyl)-ethylamino]-methyl}-phenyl)-2,7,8,9-tetrahydro-2,7,9a-triaza-benzo[cd]azulen-6-one], 5.6 nM; as for `O=Cc1cn2c3c(cccc13)C(=O)NCC2` [Example 45, 1-Oxo-1,2,3,4-tetrahydro-[1,4]diazepino[6,7,1-hi]indole-7-carbaldehyde], 167 nM and 185 nM.
Then `CN(C)CCCOc1ccc(-c2nc3cccc4c3n2CCNC4=O)cc1` [Example 121, 1-[4-(3-Dimethylamino-propoxy)-phenyl]-8,9-dihydro-7H-2,7,9a-triaza-benzo[cd]azulen-6-one], with 4 nM.
Consider `O=C1NCCn2c(-c3ccc(C(O)Cc4ccccc4)cc3)nc3cccc1c32` (stereo not drawn) [Example 247a, 1-[4-(1-Hydroxy-2-phenyl-ethyl)-phenyl]-8,9-dihydro-7H-2,7,9a-triaza-benzo[cd]azulen-6-one], for which the Ki amounted to 10 nM.
`O=C1NCCn2c(-c3ccc(C(Cc4ccccc4)N4CCCC4)cc3)nc3cccc1c32` (stereo not drawn) [Example 247, 1-[4-(2-Phenyl-1-pyrrolidin-1-yl-ethyl)-phenyl]-8,9-dihydro-7H-2,7,9a-triaza-benzo[cd]azulen-6-one]: the Ki came out at 5.4 nM.
Consider `O=C1N[C@@H](COCc2ccccc2)Cn2c(-c3ccc(Cl)cc3)nc3cccc1c32` [Example 237b, (R)-8-Benzyloxymethyl-1-(4-chloro-phenyl)-8,9-dihydro-7H-2,7,9a-triaza-benzo[cd]azulen-6-one], for which the Ki is 30 nM.
Regarding `O=C1NCCn2c(-c3ccc(CN4CCCC(CO)C4)cc3)nc3cccc1c32` (stereo not drawn) [Example 175, 1-[4-(3-Hydroxymethyl-piperidin-1-ylmethyl)-phenyl]-8,9-dihydro-7H-2,7,9a-triaza-benzo[cd]azulen-6-one], the Ki came out at 6.6 nM.
As for `CC(CNCc1ccc(-c2nc3cccc4c3n2CCNC4=O)cc1)c1ccccc1` (stereo not drawn) [Example 200, 1-{4-[(2-Phenyl-propylamino)-methyl]-phenyl}-8,9-dihydro-7H-2,7,9a-triaza-benzo[cd]azulen-6-one], the figure is 6 nM; as for `O=C1NCCn2c(-c3ccc(CO)cc3)nc3cccc1c32` [Example 58a, 1-(4-hydroxymethyl-phenyl)-8,9-dihydro-7H-2,7,9a-triaza-benzo[cd]azulen-6-one], 4.2 nM.
For `O=C1NCCn2c(Cc3ccccc3)nc3cccc1c32` [Example 21, 1-Benzyl-8,9-dihydro-7H-2,7,9a-triaza-benzo[cd]azulen-6-one], the Ki was 13.7 nM and 13 nM.
As for `O=C1NCCn2c(-c3ccc(/C=C/c4ccccc4)cc3)nc3cccc1c32` [Example 247c, 1-[4-((E)-Styryl)-phenyl]-8,9-dihydro-7H-2,7,9a-triaza-benzo[cd]azulen-6-one], the figure is 16 nM; as for `C[N+](C)([O-])Cc1ccc(-c2nc3cccc4c3n2CCNC4=O)cc1` [Example 131], 22 nM; as for `O=C1NCCn2c(-c3ccc(-c4ccc(Cl)cc4)o3)nc3cccc1c32` [Example 96, 1-[5-(4-Chlorophenyl)-furan-2-yl]-8,9-dihydro-7H-2,7,9a-triaza-benzo[cd]azulen-6-one], 10 nM.
As for `C[C@H]1Cn2c(-c3ccc(CO)cc3)nc3cccc(c32)C(=O)N1` [Example 221a, (S)-1-(4-Hydroxymethyl-phenyl)-8-methyl-8,9-dihydro-7H-2,7,9a-triaza-benzo[cd]azulen-6-one], the figure is 10 nM; as for `COC(=O)c1cn2c3c(cccc13)C(=O)NCC2` [Example 44], 900 nM.
As for `C=CCN1CCN(Cc2ccc(-c3nc4cccc5c4n3CCNC5=O)cc2)CC1` [Example 178, 1-[4-(4-Allyl-piperazin-1-ylmethyl)-phenyl]-2,7,8,9-tetrahydro-2,7,9a-triaza-benzo[cd]azulen-6-one], the figure is 12 nM; as for `O=C1NCCn2c(-c3ccc(CNCCc4ccccn4)cc3)nc3cccc1c32` [Example 204, 1-{4-[(2-Pyridin-2-yl-ethylamino)-methyl]-phenyl}-8,9-dihydro-7H-2,7,9a-triaza-benzo[cd]azulen-6-one], 7.9 nM; as for `O=C1NCCn2c(S)nc3cccc1c32` [Example 28, 1-Mercapto-8,9-dihydro-7H-2,7,9a-triaza-benzo[cd]azulen-6-one], 10 nM.
Consider `CC(O)c1ccc(-c2nc3cccc4c3n2CCNC4=O)cc1` (stereo not drawn) [Example 245a, 1-[4-(1-Hydroxy-ethyl)-phenyl]-8,9-dihydro-7H-2,7,9a-triaza-benzo[cd]azulen-6-one], for which the inhibitory constant (Ki) was 5.2 nM and 5.3 nM.
Then `CNCc1ccc(-c2nc3cccc4c3n2C[C@H](CO)NC4=O)cc1` [Example 240, (R)-8-Hydroxymethyl-1-(4-methylaminomethyl-phenyl)-8,9-dihydro-7H-2,7,9a-triaza-benzo[cd]azulen-6-one], with 4.2 nM and 4.5 nM; and `O=C1NCCn2c(-c3ccc(CNCc4ccccc4)cc3)nc3cccc1c32` [Example 196, 1-[4-(Benzylamino-methyl)-phenyl]-8,9-dihydro-7H-2,7,9a-triaza-benzo[cd]azulen-6-one], with 3.9 nM.
Then `CN(CCc1ccccc1)Cc1ccc(-c2nc3cccc4c3n2C[C@H](CO)NC4=O)cc1` [Example 239, (R)-8-Hydroxymethyl-1-{4-[(methyl-phenethyl-amino)-methyl]-phenyl}-8,9-dihydro-7H-2,7,9a-triaza-benzo[cd]azulen-6-one], with 7.8 nM; and `O=C1NCCn2c(-c3ccc(CNCCc4ccccc4)cc3)nc3cccc1c32` [Example 183, 1-[4-(Phenethylamino-methyl)-phenyl]-2,7,8,9-tetrahydro-2,7a-triaza-benzo[cd]azulen-6-one], with 8 nM.
Then `O=C1NCCn2c(-c3ccc(CNCCCc4ccccc4)cc3)nc3cccc1c32` [Example 201, 1-{4-[(3-Phenyl-propylamino)-methyl]-phenyl}-8,9-dihydro-7H-2,7,9a-triaza-benzo[cd]azulen-6-one], with 5.8 nM; and `O=C1NCCn2c(-c3ccco3)nc3cccc1c32` [Example 20, 1-Furan-2-yl-8,9-dihydro-7H-2,7,9a-triaza-benzo[cd]azulen-6-one], with 11.9 nM; and `O=C1NCCn2c(-c3ccccc3)cc3cccc1c32` [Example 33, 6-Phenyl-3,4-dihydro-2H-[1,4]diazepino[6,7,1-hi]indol-1-one], with 14.3 nM.
As for `CCCN(CCC)Cc1ccc(-c2nc3cccc4c3n2CCNC4=O)cc1` [Example 190, 1-(4-Dipropylaminomethyl-phenyl)-8,9-dihydro-7H-2,7,9a-triaza-benzo[cd]azulen-6-one], the inhibition constant Ki was 8.1 nM.
Then `O=Cc1c(-c2ccc(Cl)cc2)n2c3c(cccc13)C(=O)NCC2` [Example 38, 6-(4-Chloro-phenyl)-1-oxo-1,2,3,4-tetrahydro-[1,4]diazepino[6,7,1-hi]indole-7-carboxaldehyde], with 43 nM; and `O=C1NCCn2c(-c3ccc(CNCCc4ccncc4)cc3)nc3cccc1c32` [Example 206, 1-{4-[(2-Pyridin-4-yl-ethylamino)-methyl]-phenyl}-8,9-dihydro-7H-2,7,9a-triaza-benzo[cd]azulen-6-one], with 6.4 nM; and `CCOC(=O)CCN(Cc1ccc(-c2nc3cccc4c3n2CCNC4=O)cc1)Cc1ccco1` [Example 193, 3-{[4-(6-oxo-6,7,8,9-Tetrahydro-2,7,9a-triaza-benzo[cd]azulen-1-yl)-benzyl]-furan-2-ylmethyl-amino}-propionic Acid Ethyl Ester], with 11 nM.
`O=C1NCCn2c(-c3ccc(Cn4ccnc4)cc3)nc3cccc1c32` [Example 213, 1-(4-Imidazol-1-ylmethyl-phenyl)-8,9-dihydro-7H-2,7,9a-triaza-benzo[cd]azulen-6-one]: the Ki came to 7.4 nM.
Then `O=C1NCCn2c(-c3ccc(CNC4CCC4)cc3)nc3cccc1c32` [Example 188, 1-(4-Cyclobutylaminomethyl-phenyl)-8,9-dihydro-7H-2,7,9a-triaza-benzo[cd]azulen-6-one], with 4.8 nM.
